This is an account of results in patent US20250002464A1, “NOVEL COMPOUND AND PHARMACEUTICAL COMPOSITION COMPRISING SAME” (SAPIENSBIO INC., priority 2021, published 2025).

The subject of this assay is α-SMA. Nature of the assay: α-SMA expression inhibitory ability in MRC5 cell line (Western blotting). It counts as cell-based. The conditions noted are these: TGF-β1 (10 ng/mL), 72 hours, relative to TGF-β1 only. On the procedure: Subsequently, the inhibitory effect on pulmonary fibrosis of the compounds according to the present invention was overall evaluated. An MRC5 cell line was treated with each compound at 10 μM, and 2 hours later, treated with TGF-β1 (10 ng/mL). After 72 hours, the cells were lysed using RIPA Buffer, and then an α-SMA protein level was measured through Western blotting. The α-SMA expression level when treating the cells with each compound and TGF-β1 compared to the α-SMA expression level when treating the cells only with TGF-β1 without the compound was calculated as the α-SMA expression inhibitory ability of the corresponding compound. The α-SMA expression inhibitory ability of each compound is summarized in Table 2 below (A: inhibitory ability≥70%, B: 50%: inhibitory ability<70%, C: inhibitory ability<50%).
For orientation: A western blot detects proteins with antibodies after separation by electrophoresis.

Each structure is given as a SMILES string. Bounds are passed on as bounds.

Regarding `CC1CCCN1CCC(=O)N1CCN(c2ccc(F)cc2)c2cc(F)ccc21` (stereo in doubt) [Compound 40, (R)-1-(6-fluoro-4-(4-fluorophenyl)-3,4-dihydroquinoxaline-1(2H)-yl)-3-(2-methylpyrrolidin-1-yl)propan-1-one], the inhibition (commonly the change of the read-out against control, counted positive when it falls) at 10 µM is less than 50%.

`O=C(CCN1CCCC1)N1CCN(c2ccccc2)c2cc(F)ccc21` [Compound 1, 1-(6-fluoro-4-phenyl-3,4-dihydroquinoxaline-1(2H)-yl)-3-(pyrrolidin-1-yl)propan-1-one] came in with an inhibition at 10 µM of 50 to 70%.

On to `O=C(CCN1CCOCC1)N1CCN(c2ccccc2)c2cc(F)ccc21` [Compound 2, 1-(6-fluoro-4-phenyl-3,4-dihydroquinoxaline-1(2H)-yl)-3-morpholinopropan-1-one], for which the inhibition at 10 µM was less than 50%.

With `O=C(CCN1CCCCC1)N1CCN(c2ccccc2)c2cc(F)ccc21` [Compound 3, 1-(6-fluoro-4-phenyl-3,4-dihydroquinoxaline-1(2H)-yl)-3-(piperidin-1-yl)propan-1-one], the inhibition at 10 µM fell in the range of 50 to 70%.

Regarding `CN1CCN(CCC(=O)N2CCN(c3ccccc3)c3cc(F)ccc32)CC1` [Compound 4, 1-(6-fluoro-4-phenyl-3,4-dihydroquinoxaline-1(2H)-yl)-3-(4-methylpiperazin-1-yl)propan-1-one], the inhibition at 10 µM was 50 to 70%.

The compound `C[C@@H]1CCCN1CCC(=O)N1CCN(c2ccccc2)c2cc(F)ccc21` [Compound 5, (R)-1-(6-fluoro-4-phenyl-3,4-dihydroquinoxaline-1(2H)-yl)-3-(2-methylpyrrolidin-1-yl)propan-1-one] yielded an inhibition at 10 µM of less than 50%.

On to `C[C@@H]1CCCCN1CCC(=O)N1CCN(c2ccccc2)c2cc(F)ccc21` [Compound 6, (R)-1-(6-fluoro-4-phenyl-3,4-dihydroquinoxaline-1(2H)-yl)-3-(2-methylpiperidin-1-yl)propan-1-one], for which the inhibition at 10 µM was 50 to 70%.

For `CC(C(=O)N1CCN(c2ccccc2)c2cc(F)ccc21)N1CCCC[C@H]1C` (stereo partly drawn) [Compound 8, 1-(6-fluoro-4-phenyl-3,4-dihydroquinoxaline-1(2H)-yl)-2-((R)-2-methylpiperidin-1-yl)propan-1-one], the inhibition at 10 µM was less than 50%.

`CC(C(=O)N1CCN(c2ccccc2)c2cc(F)ccc21)N1CCCC1` (centres unmarked) [Compound 10, 1-(6-fluoro-4-phenyl-3,4-dihydroquinoxaline-1(2H)-yl)-2-(pyrrolidin-1-yl)propan-1-one] registered an inhibition at 10 µM of less than 50%.

The compound `CC(C(=O)N1CCN(c2ccccc2)c2cc(F)ccc21)N1CCN(C)CC1` (centres unmarked) [Compound 11, 1-(6-fluoro-4-phenyl-3,4-dihydroquinoxaline-1(2H)-yl)-2-(4-methylpiperazin-1-yl)propan-1-one] came in with an inhibition at 10 µM of 50 to 70%.

`CC(C(=O)N1CCN(c2ccccc2)c2cc(F)ccc21)N1CCC[C@H]1C` (some centres unmarked) [Compound 13]: the inhibition at 10 µM is less than 50%.

On to `O=C(CCN1CCCC1)N1CCN(c2ccc(F)cc2)c2ccccc21` [Compound 14, 1-(4-(4-fluorophenyl)-3,4-dihydroquinoxaline-1(2H)-yl)-3-(pyrrolidin-1-yl)propan-1-one], for which the inhibition at 10 µM is not below 70%.

`O=C(CCN1CCCCC1)N1CCN(c2ccc(F)cc2)c2ccccc21` [Compound 16, 1-(4-(4-fluorophenyl)-3,4-dihydroquinoxaline-1(2H)-yl)-3-(piperidin-1-yl)propan-1-one] returned an inhibition at 10 µM not below 70%.

`CN1CCN(CCC(=O)N2CCN(c3ccc(F)cc3)c3ccccc32)CC1` [Compound 17, 1-(4-(4-fluorophenyl)-3,4-dihydroquinoxaline-1(2H)-yl)-3-(4-methylpiperazin-1-yl)propan-1-one di-p-toluene sulfonate]: the inhibition at 10 µM is 50 to 70%.

Take `C[C@@H]1CCCCN1CCC(=O)N1CCN(c2ccc(F)cc2)c2ccccc21` [Compound 19, (R)-1-(4-(4-fluorophenyl)-3,4-dihydroquinoxaline-1(2H)-yl)-3-(2-methylpiperidin-1-yl)propan-1-one]: the inhibition at 10 µM is less than 50%.

For the compound `O=C(CCN1CCN2CCCC2C1)N1CCN(c2ccc(F)cc2)c2ccccc21` (centres unmarked) [Compound 20, 1-(4-(4-fluorophenyl)-3,4-dihydroquinoxaline-1(2H)-yl)-3-(hexahydropyrrolo[1,2-a]pyrazin-2(1H)-yl)propan-1-one], the inhibition at 10 µM fell in the range of 50 to 70%.

Compound `O=C(CCNCc1ccccn1)N1CCN(c2ccc(F)cc2)c2ccccc21` [Compound 21, 1-(4-(4-fluorophenyl)-3,4-dihydroquinoxaline-1(2H)-yl)-3-((pyridin-2-ylmethyl)amino)propan-1-one] came in with an inhibition at 10 µM of 50 to 70%.

The compound `O=C(CCN1CC[C@H](O)C1)N1CCN(c2ccc(F)cc2)c2ccccc21` [Compound 23, (S)-1-(4-(4-fluorophenyl)-3,4-dihydroquinoxaline-1(2H)-yl)-3-(3-hydroxypyrrolidin-1-yl)propan-1-one] came in with an inhibition at 10 µM not below 70%.

As for `CN1CC[C@@H](NCCC(=O)N2CCN(c3ccc(F)cc3)c3ccccc32)C1` [Compound 26, (R)-1-(4-(4-fluorophenyl)-3,4-dihydroquinoxaline-1(2H)-yl)-3-((1-methylpyrrolidin-3-yl)amino)propan-1-one], the inhibition at 10 µM was not below 70%.

As to `CN1CC[C@H](NCCC(=O)N2CCN(c3ccc(F)cc3)c3ccccc32)C1` [Compound 27, (S)-1-(4-(4-fluorophenyl)-3,4-dihydroquinoxaline-1(2H)-yl)-3-((1-methylpyrrolidin-3-yl)amino)propan-1-one], the inhibition at 10 µM is not below 70%.

Take `O=C(CCN1CCNCC1)N1CCN(c2ccc(F)cc2)c2ccccc21` [Compound 28, 1-(4-(4-fluorophenyl)-3,4-dihydroquinoxaline-1(2H)-yl)-3-(piperazin-1-yl)propan-1-one]: the inhibition at 10 µM is not below 70%.

In turn, `O=C(CCc1cnc[nH]1)N1CCN(c2ccc(F)cc2)c2ccccc21` [Compound 29, 1-(4-(4-fluorophenyl)-3,4-dihydroquinoxaline-1(2H)-yl)-3-(1H-imidazol-5-yl)propan-1-one] gave an inhibition at 10 µM not below 70%.

`CN1CCN(CCCN2CCN(c3ccc(F)cc3)c3ccccc32)CC1` [Compound 30, 1-(4-fluorophenyl)-4-(3-(4-methylpiperazin-1-yl)propyl)-1,2,3,4-tetrahydroquinoxaline] yielded an inhibition at 10 µM not below 70%.

`CC(C(=O)N1CCN(c2ccc(F)cc2)c2ccccc21)N1CCCC1` (centres unmarked) [Compound 33, 1-(4-(4-fluorophenyl)-3,4-dihydroquinoxaline-1(2H)-yl)-2-(pyrrolidin-1-yl)propan-1-one] displayed an inhibition at 10 µM of 50 to 70%.

Turning to `CC(C(=O)N1CCN(c2ccc(F)cc2)c2ccccc21)N1CCN(C)CC1` (centres unmarked) [Compound 34, 1-(4-(4-fluorophenyl)-3,4-dihydroquinoxaline-1(2H)-yl)-2-(4-methylpiperazin-1-yl)propan-1-one], the inhibition at 10 µM was less than 50%.

As for `O=C(CCN1CCCC1)N1CCN(c2ccc(F)cc2)c2cc(F)ccc21` [Compound 36, 1-(6-fluoro-4-(4-fluorophenyl)-3,4-dihydroquinoxaline-1(2H)-yl)-3-(pyrrolidin-1-yl)propan-1-one], the inhibition at 10 µM is not below 70%.

`O=C(CCN1CCOCC1)N1CCN(c2ccc(F)cc2)c2cc(F)ccc21` [Compound 37, 1-(6-fluoro-4-(4-fluorophenyl)-3,4-dihydroquinoxaline-1(2H)-yl)-3-morpholinopropan-1-one] had an inhibition at 10 µM of less than 50%.

The compound `CN1CCN(CCC(=O)N2CCN(c3ccc(F)cc3)c3cc(F)ccc32)CC1` [Compound 39, 1-(6-fluoro-4-(4-fluorophenyl)-3,4-dihydroquinoxaline-1(2H)-yl)-3-(4-methylpiperazin-1-yl)propan-1-one] returned an inhibition at 10 µM of 50 to 70%.

In turn, `C[C@@H]1CCCCN1CCC(=O)N1CCN(c2ccc(F)cc2)c2cc(F)ccc21` [Compound 41, (R)-1-(6-fluoro-4-(4-fluorophenyl)-3,4-dihydroquinoxaline-1(2H)-yl)-3-(2-methylpiperidin-1-yl)propan-1-one] returned an inhibition at 10 µM of less than 50%.

With `O=C(CCN1CCN2CCCC2C1)N1CCN(c2ccc(F)cc2)c2cc(F)ccc21` (centres unmarked) [Compound 42, 1-(6-fluoro-4-(4-fluorophenyl)-3,4-dihydroquinoxaline-1(2H)-yl)-3-(hexahydropyrrolo[1,2-a]pyrazin-2(1H)-yl)propan-1-one], the inhibition at 10 µM is less than 50%.

As for `O=C(CCN1CCN(C2CC2)CC1)N1CCN(c2ccc(F)cc2)c2cc(F)ccc21` [Compound 43, 3-(4-cyclopropylpiperazin-1-yl)-1-(6-fluoro-4-(4-fluorophenyl)-3,4-dihydroquinoxaline-1(2H)-yl)propan-1-one], the inhibition at 10 µM was less than 50%.

Regarding `O=C(CCN1CC[C@H](O)C1)N1CCN(c2ccc(F)cc2)c2cc(F)ccc21` [Compound 44, (S)-1-(6-fluoro-4-(4-fluorophenyl)-3,4-dihydroquinoxaline-1(2H)-yl)-3-(3-hydroxypyrrolidin-1-yl)propan-1-one], the inhibition at 10 µM was not below 70%.

With `O=C(CCc1cnc[nH]1)N1CCN(c2ccc(F)cc2)c2cc(F)ccc21` [Compound 46, 1-(6-fluoro-4-(4-fluorophenyl)-3,4-dihydroquinoxaline-1(2H)-yl)-3-(1H-imidazol-5-yl)propan-1-one], the inhibition at 10 µM was not below 70%.

With `N[C@@H](Cc1c[nH]cn1)C(=O)N1CCN(c2ccc(F)cc2)c2cc(F)ccc21` [Compound 47, (S)-2-amino-1-(6-fluoro-4-(4-fluorophenyl)-3,4-dihydroquinoxaline-1(2H)-yl)-3-(1H-imidazol-4-yl)propan-1-one], the inhibition at 10 µM is 50 to 70%.

For the compound `N[C@H](Cc1c[nH]cn1)C(=O)N1CCN(c2ccc(F)cc2)c2cc(F)ccc21` [Compound 48, (R)-2-amino-1-(6-fluoro-4-(4-fluorophenyl)-3,4-dihydroquinoxaline-1(2H)-yl)-3-(1H-imidazol-4-yl)propan-1-one], the inhibition at 10 µM was less than 50%.
